# From patent US20260345729A1, “TISSUE DIFFERENTIATION FACTOR RELATED POLYPEPTIDES (TDFRPS) FOR THE TREATMENT OF MYOCARDIAL INJURY” (Therapeutics By Design, LLC, priority 2022, published 2026)
# “And” between values parts separate entries of the source, which are not always exact repeats. Identical values can stand only once. “Also recorded” adds a separate entry of the source.
# B1: BMP-7: bone morphogenetic proteins (BMPs) (protein, UniProt P18075 293-431, looked up)
# Bone morphogenetic protein 7: STGSKQRSQNRSKTPKNQEALRMANVAENSSSDQRQACKKHELYVSFRDLGWQDWIIAPEGYAAYYCEGECAFPLNSYMNATNHAIVQTLVHFINPETVPKPCCAPTQLNAISVLYFDDSSNVILKKYRNMVVRACGCH
# Key:
# [1] = test system: Caspase-3, cardiomyocytes; test: Doxorubicin-induced Caspase-3 activity in cardiomyocytes; type: cell-based, rat; settings: for caspase-3 activity (effect of doxorubicin itself): 333 μM (legend) / 0.33 μM (example) doxorubicin, cardiomyocytes, FIG. 3; for doxorubicin induced Caspase-3 activity: doxorubicin 0.33 μM 24 h (FIG. 3 legend: 333 μM), then BMP-7 143 nM or THR-123 100 and 500 μM for 60 h, p<0.05
# Procedure: (§1) Neonatal rat cardiomyocytes (CM) were pre-treated with 0.33 μM doxorubicin for 24 h, followed by treatment with BMP-7 (143 nM) or THR-123 (SEQ ID NO: 1) at 100 and 500 μM for 60 h.
# Neonatal rat cardiomyocytes (CM) were pre-treated with 0.33 μM doxorubicin for 24 h, followed by treatment with BMP-7 (143 nM) or SEQ ID No. 1 at 100 and 500 μM for 60 h. […] Caspase-3 activation is a step common to both apoptotic pathways and leads to apoptosis.
# [2] = test system: phosphorylation of AKT, cardiomyocytes; test: Phosphorylated AKT in doxorubicin-treated cardiomyocytes; type: cell-based, rat; settings: FIG. 2
# Description: (§2) The examples described herein valuated the effect of TDFRP's on the physiology of cardiomyocytes in vitro. Phosphorylation of cellular AKT at Ser473 is known to promote cardiomyocyte survival, function, and contractility. Cellular enzyme Caspase-3 is responsible for apoptosis via both apoptosis pathways. Chemotherapeutic agent doxorubicin […] used to treat a diverse number of cancers, but one significant side effect is decreased heart function. In cardiomyocytes, doxorubicin hinders the phosphorylation of AKT and stimulates Caspase-3. Lipopolysaccharides (LPS) are endotoxins that promote inflammation and apoptosis in cardiomyocytes.
# as §1
# [3] = test system: myocardial ischemia in the rat after ligation of the left anterior descending artery; test: Rat LAD ligation model: histomorphometric necrotic volume / volume at risk (ischemia/reperfusion injury); type: in vivo; settings: i.v. 2 hr prior and 24, 72, 120 hr post ligation, 20 min ischemia, 7 days reperfusion, BMP-7 160 μg/kg (p=0.08), THR-123 10 mg/kg (p=0.007), FIG. 8
# Procedure: For each slice of a heart, the area of the necrotic area and the area of the whole area at risk (not stained blue) are measured. The areas are summed over all slices to obtain an estimate of the necrotic volume (NV) and the volume at risk (VR). The ratio of NV/VR is a measure of the myocardial injury resulting from the period of ischemia and subsequent reperfusion injury.
# The efficacy of BMP mimetic THR-123 in ameliorating the effects of myocardial ischemia was investigated in the rat after ligation of the coronary artery. The rat LAD model is used for studying the effect of treatments for ameliorating the effect of a heart attack (coronary infarct). The Left Anterior Descending artery (LAD) supplies blood to the left ventricle. Blocking blood flow through the LAD creates ischemia in a region of the left ventricle muscle (region at risk). […]
# Twenty-four unmanipulated rats, sorted into three large groups by initial body weight (>300 g pre-surgery) were evaluated. […]
# The effect of the LAD ligation was measured via histomorphometric analysis of heart slices where the necrotic areas (yellow) and the areas impacted by the LAD ligation (area at risk, i.e., not stained blue) were measured for each slice and summed over all slices to obtain a measure of the infarct volume and the volume at risk (FIG. 7). […]
# IL-6, cardiomyocytes = test: LPS-induced IL-6 release in cardiomyocytes; type: cell-based, human; settings: 100 ng/ml LPS; BMP-7 143 nM; THR-123 4, 20, 100, 500 μM; FIG. 5
# [4] = test system: paracardial inflammation in rat hearts after LAD ligation; test: Paracardial inflammation / pericarditis inflammation level in rat LAD ligation model; type: in vivo; settings: i.v.; BMP-7 160 μg/kg; THR-123 10 mg/kg; day 7 post ligation; FIG. 9
# Procedure: Myocardial ischemia was created by ligating the left anterior descending artery (LAD), which supplies blood to the left ventricle of the heart. In the LAD infarct model the chest and the pericardium are opened to expose the LAD. A suture is placed around the LAD and loops are added to the two ends, then the suture is tightened with an over hand knot (ligation). The ligation blockage to the LAD was maintained for 20 min to simulate a coronary infarct, then released using the two loops.
# The animals were divided into three groups that were dosed with PBS, BMP-7, or THR-123 (SEQ ID NO: 1). Administrations were at 2 hr prior to ligation and at 24, 72 and 120 hr post ligation.
# Twenty-four unmanipulated rats, sorted into three large groups by initial body weight (>300 g pre-surgery) were evaluated. Animals underwent surgery and were sorted into 3 treatment groups: Group 1: Vehicle (neg. control), PBS, equal volume i.v; Group 2: BMP-7, 160 μg/kg i.v.<5 ml/kg; Group 3: THR-123 (SEQ ID NO: 1), 10 mg/kg i.v.<5 ml/kg. The LAD was ligated to create a 20 min period of ischemia, then released for seven days during which reperfusion injury occurs (IR injury).
# The predominance of the hearts from the PBS treated group had more severe inflammation than hearts from the BMP-7 treated and the THR-123 (SEQ ID NO: 1) treated groups (FIG. 9).
# [5] = test system: Akt phosphorylation at Serine 473, neonatal rat cardiomyocytes; test: Akt phosphorylation (Ser473) in cardiomyocytes starved by serum withdrawal (ischemic injury); type: cell-based; settings: serum/growth supplement withdrawal; THR-123 100 μM, 60 h; p<0.01; FIG. 1
# Description: Phosphorylated Akt is a marker of apoptosis. Ischemic injury leads to apoptosis.
# as §2
# Primary neonatal rat cardiomyocytes (Cell Applications) were cultured in medium with 10% growth supplement (Cell Applications) for 24 hours at 37 °C, 5% CO2. Cells were then starved of growth supplement for 12 hours to create ischemic injury. Controls received medium alone. Cells were incubated with culture medium alone, BMP-7 (143 nM) or SEQ ID No. 1 (100 μM) for 60 h. In FIG. 1, Akt phosphorylation at Serine 473 (Cell Signaling Technology) is depressed due to media starvation and was not affected by the addition of PBS.
# [6] = test system: Caspase-3, cardiomyocytes; test: LPS-induced Caspase-3 in cardiomyocytes; type: cell-based, human; settings: 100 ng/ml LPS; BMP-7 143 nM; THR-123 4, 20, 100, 500 μM (legend: 20 μM or higher); FIG. 4
Molecule,caspase-3 activity (effect of doxorubicin itself) [1],caspase-3 activity (effect of doxorubicin itself) ([1]; listed as Doxorubicin),"phosphorylation of AKT (effect of doxorubicin itself) ([2]; 333 nM doxorubicin, serum starved cardiomyocytes)",reduction in myocardial injury / IR damage relative to PBS (necrotic volume / volume at risk) ([3]; 10 mg/kg),doxorubicin induced Caspase-3 activity [1],"LPS induced IL-6 (IL-6, cardiomyocytes)",paracardial inflammation relative to PBS [4],Akt Ser473 phosphorylation [5],LPS induced Caspase-3 [6],"Akt phosphorylation compared to doxorubicin alone ([2]; 0.33 μM (333 nM) doxorubicin 24 h, then THR-123 at 100 and 500 μM for 60 h, p<0.01)",reduction in myocardial injury / IR damage relative to PBS (necrotic volume / volume at risk) [3] [%]
"COc1cccc2c1C(=O)c1c(O)c3c(c(O)c1C2=O)C[C@@](O)(C(=O)CO)C[C@@H]3O[C@H]1C[C@H](N)[C@H](O)[C@H](C)O1 [doxorubicin, reference compound]",stimulated caspase-3 activity,Stimulated Caspase-3,further reduces phosphorylation of AKT,–,–,–,–,–,–,–,–
"THR-123: TDFRP peptide, BMP mimetic: (H) CYFDDSSNVLCKKYRS (OH)",–,–,–,85% and 84%,inhibited doxorubicin induced Caspase-3 activity in a dose dependent manner; also recorded: significantly inhibited doxorubicin induced Caspase-3 activity; also recorded: completely reversed the apoptotic effects of doxorubicin,reduces the level of LPS induced IL-6 in a concentration dependent manner; also recorded: reduced the level of IL-6 release as did THR-123 in a dose dependent manner,reduced paracardial inflammation relative to PBS,significantly increased Akt Ser473 phosphorylation; also recorded: reversed the effects of ischemia on AKT phosphorylation,reduced the level of LPS induced Caspase-3 in a concentration dependent manner; also recorded: reversed caspase-3 activity to an even greater extent,significantly increased cellular Akt phosphorylation; also recorded: reversed the inhibition of AKT phosphorylation in a dose dependent manner,–
B1,–,–,–,–,significantly inhibited doxorubicin induced Caspase-3 activity; also recorded: completely reversed the apoptotic effects of doxorubicin,reduces the level of LPS induced IL-6 in a concentration dependent manner; also recorded: reduced the level of IL-6 release,reduced paracardial inflammation relative to PBS,–,reduced the level of LPS induced Caspase-3 in a concentration dependent manner; also recorded: somewhat reversed the effect of LPS,–,51
